Experimental data taken from ChEMBL document CHEMBL2029339, “Acylthiourea, acylurea, and acylguanidine derivatives with potent hedgehog inhibiting activity” (J Med Chem, 2012).
Calls of active or inactive are those of the source. The calls are words filed in the database; no cut-off is given here.

How the values were obtained:
[1] = target: Smoothened (Mus musculus) (UniProt P56726); test: Inhibition of Smo-mediated Hh signaling in mouse Shh-light2 cells at 3 uM by luciferase reporter gene assay; conditions: Shh Light II
C3H 10T1/2 [2] = test: Inhibition of SAG-induced differentiation of mouse mesenchymal pluripotent C3H10T1/2 cells to alkaline phosphatase positive oeseoblasts at 10 uM after 6 days; conditions: C3H 10T1/2, 6 days
C3H 10T1/2 [3] = test: Inhibition of SAG-induced differentiation of mouse mesenchymal pluripotent C3H10T1/2 cells to alkaline phosphatase positive oeseoblasts after 6 days; conditions: C3H 10T1/2, 6 days
[4] = target: Smoothened (Mus musculus) (UniProt P56726); test: Inhibition of Smo-mediated Hh signaling in mouse Shh-light2 cells at 0.3 uM by luciferase reporter gene assay; conditions: Shh Light II

Chain of Smoothened (Mus musculus) (P56726 whole entry, looked up): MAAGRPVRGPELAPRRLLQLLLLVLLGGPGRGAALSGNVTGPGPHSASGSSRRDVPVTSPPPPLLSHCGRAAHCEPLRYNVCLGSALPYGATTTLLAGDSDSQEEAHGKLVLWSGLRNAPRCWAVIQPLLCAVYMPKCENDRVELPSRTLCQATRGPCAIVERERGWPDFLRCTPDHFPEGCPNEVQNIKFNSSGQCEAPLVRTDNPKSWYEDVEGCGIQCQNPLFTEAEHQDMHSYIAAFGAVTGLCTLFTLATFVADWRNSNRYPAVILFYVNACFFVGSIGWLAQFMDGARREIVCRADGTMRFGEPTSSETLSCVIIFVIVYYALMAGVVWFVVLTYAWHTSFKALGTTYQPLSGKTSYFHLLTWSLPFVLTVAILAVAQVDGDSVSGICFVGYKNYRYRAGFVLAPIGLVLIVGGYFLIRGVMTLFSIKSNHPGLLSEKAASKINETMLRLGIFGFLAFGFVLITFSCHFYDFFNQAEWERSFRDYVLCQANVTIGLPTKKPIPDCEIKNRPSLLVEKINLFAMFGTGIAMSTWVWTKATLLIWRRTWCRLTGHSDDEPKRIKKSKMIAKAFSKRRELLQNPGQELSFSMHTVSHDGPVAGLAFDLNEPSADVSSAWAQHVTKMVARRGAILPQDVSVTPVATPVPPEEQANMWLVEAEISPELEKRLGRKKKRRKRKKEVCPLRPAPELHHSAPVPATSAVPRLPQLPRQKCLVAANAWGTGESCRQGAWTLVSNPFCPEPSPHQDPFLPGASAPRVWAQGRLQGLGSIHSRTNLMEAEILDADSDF

Row | Structure (SMILES) | inhibition [1] | IC50 (C3H 10T1/2 [3]) | inhibition [4] | inhibition at 10 µM (C3H 10T1/2 [2])
1 | O=C(NC(=S)Nc1cccc(NC(=O)c2ccccc2)c1)c1ccc2c(c1)OCCO2 | inactive | – | – | –
2 | COc1cc(C(=O)NC(=S)Nc2cccc(NC(=O)C3CCCCC3)c2)cc(OC)c1OC | 14% | – | – | 26%
3 | CCOc1cc(C(=O)NC(=S)Nc2cccc(NC(=O)c3ccccc3)c2)cc(OC)c1OCC | 100% | 800 nM | – | –
4 | COc1cc(C(=O)NC(=S)Nc2cccc(-n3ccc4ccccc43)c2)cc(OC)c1OC | 69% | – | – | 92%
5 | COc1cc(C(=O)NC(=S)Nc2cccc(NC(=O)c3ccccc3)c2)cc2c1OCO2 | 92% | 1100 nM | – | –
6 | COc1cc(C(=O)NC(=S)Nc2cccc(-n3cnc4ccccc43)c2)cc(OC)c1OC | 84% | – | – | 60%
7 | COc1cc(C(=O)NC(=O)Nc2cccc(NC(=O)C(C)C)c2)cc(OC)c1OC | 62% | – | 4% | 99%
8 | COc1ccc(C(=O)NC(=S)Nc2cccc(NC(=O)c3ccccc3)c2)c(OC)c1 | 34% | 4100 nM | – | –
9 | COc1cc(C(=O)NC(=S)Nc2cccc(NC(=O)c3ccc(N4CCOCC4)cc3)c2)cc(OC)c1OC | 90% | – | – | 55%
10 | COc1cc(C(=O)NC(=S)Nc2cccc(NC(=O)c3ccc(-c4ccccc4)cc3)c2C)cc(OC)c1OC | 48% | – | 9% | 7%
11 | COc1cc(OC)cc(C(=O)NC(=S)Nc2cccc(NC(=O)c3ccccc3)c2)c1 | 84% | 1900 nM | – | –
12 | COc1cc(C(=O)NC(=S)Nc2ccc(Cl)c(C(=O)Nc3ccc(N(C)C)cc3)c2)cc(OC)c1OC | 99% | – | 4% | 98%
13 | COc1cc(C(=O)NC(=S)Nc2cccc(NC(=O)c3ccccc3)c2C)cc(OC)c1OC | 54% | – | 2% | 44%
14 | COc1ccc(NC(=O)c2cc(NC(=S)NC(=O)c3cc(OC)c(OC)c(OC)c3)ccc2Cl)cc1 | 100% | – | 10% | 88%
15 | COc1cc(C(=O)NC(=S)Nc2ccc(C)c(NC(=O)c3ccc(Oc4ccccc4)cc3)c2)cc(OC)c1OC | 97% | 500 nM | 59% | 99%
16 | COc1ccc(C(=O)Nc2cccc(NC(=O)NC(=O)c3cc(OC)c(OC)c(OC)c3)c2)cc1 | 103% | – | 40% | 99%
17 | COc1cc(C(=O)NC(=N)Nc2ccc(C)c(NC(=O)c3ccccc3)c2)cc(OC)c1OC | – | 180 nM | 88% | –
18 | COc1cc(C(=O)NC(=O)Nc2cccc(NC(=O)c3ccc4ccccc4c3)c2)cc(OC)c1OC | 3% | – | 1% | 4%
19 | COc1cc(C(=O)NC(=O)Nc2cccc(NC(=O)c3ccc(-c4ccccc4)cc3)c2C)cc(OC)c1OC | 99% | – | 26% | 104%
20 | CCOc1cc(C(=O)NC(=O)Nc2cccc(NC(=O)c3ccccc3)c2)cc(OCC)c1OCC | 24% | – | 13% | 45%
21 | COc1ccc(NC(=S)NC(=O)c2cc(OC)c(OC)c(OC)c2)cc1NC(=O)c1ccccc1 | 33% | – | 1% | 8%
22 | COc1cc(C(=O)NC(=S)Nc2ccc(Cl)c(C(=O)Nc3ccc(Cl)cc3)c2)cc(OC)c1OC | 98% | – | 7% | 96%
23 | COc1ccc(C(=O)NC(=S)Nc2cccc(NC(=O)c3ccccc3)c2)cc1OC | 71% | – | – | 45%
24 | COc1cc(C(=O)NC(=S)Nc2cccc(NC(=O)Nc3ccc(-c4ccccc4)cc3)c2)cc(OC)c1OC | 71% | – | – | 91%
25 | CCOc1cc(C(=O)NC(=S)Nc2cccc(NC(=O)c3ccccc3)c2)cc(OCC)c1OCC | 100% | 800 nM | – | –
26 | COc1cc(C(=O)NC(=S)Nc2cccc(NC(=O)c3cc(OC)c(OC)c(OC)c3)c2)cc(OC)c1OC | 37% | – | – | 74%
27 | COc1cc(C(=O)NC(=S)Nc2ccc(C)c(NC(=O)c3cccc(-c4ccccc4)c3)c2)cc(OC)c1OC | 100% | 600 nM | 72% | 97%
28 | COc1cc(C(=O)NC(=O)Nc2cccc(NC(=O)c3ccccc3)c2)cc2c1OCO2 | 2% | – | 1% | 32%

Continued, in another order:

Row | inhibition [1] | IC50 (C3H 10T1/2 [3]) | inhibition [4] | Structure (SMILES) | inhibition at 10 µM (C3H 10T1/2 [2])
29 | 93% | 1600 nM | – | COc1ccc(C(=O)Nc2cccc(NC(=S)NC(=O)c3cc(OC)c(OC)c(OC)c3)c2)cc1 | 85%
30 | 96% | – | 6% | COc1cc(C(=O)NC(=O)Nc2cccc(NC(=O)c3ccc(Cl)cc3)c2)cc(OC)c1OC | 95%
31 | 6% | – | – | COc1cc(C(=O)NC(=S)Nc2cccc(NC(=O)C(C)C)c2)cc(OC)c1OC | 6%
32 | 78% | – | – | COc1cc(C(=O)NC(=S)Nc2cccc(NC(=O)Nc3ccccc3)c2)cc(OC)c1OC | 104%
33 | 100% | 900 nM | 60% | COc1cc(C(=O)NC(=S)Nc2ccc(C)c(NC(=O)c3ccccc3)c2)cc(OC)c1OC | 99%
34 | 53% | – | – | COc1cc(C(=O)NC(=S)Nc2cccc(NC(=O)c3ccco3)c2)cc(OC)c1OC | 67%
35 | 49% | 2000 nM | – | COc1ccccc1C(=O)Nc1cccc(NC(=S)NC(=O)c2cc(OC)c(OC)c(OC)c2)c1 | 99%
36 | 99% | 800 nM | – | COc1cc(C(=O)NC(=S)Nc2cccc(NC(=O)c3ccc(Cl)cc3)c2)cc(OC)c1OC | 96%
37 | 64% | – | – | COc1cc(C(=O)NC(=S)Nc2cccc(NC(=O)c3cccc4ccccc34)c2)cc(OC)c1OC | 63%
38 | 98% | – | 21% | COc1cc(C(=O)NC(=S)Nc2ccc(F)c(NC(=O)c3ccccc3)c2)cc(OC)c1OC | 96%
39 | 13% | – | – | COc1cc(C(=O)NC(=S)Nc2cccc(NC(=O)c3cccs3)c2)cc(OC)c1OC | 60%
40 | 67% | – | – | COc1cc(C(=O)NC(=S)Nc2cccc(NC(=O)c3ccncc3)c2)cc(OC)c1OC | 82%
41 | 66% | 2500 nM | – | COc1cc(C(=O)NC(=S)Nc2cccc(NC(=O)c3ccccc3Cl)c2)cc(OC)c1OC | 80%
42 | 99% | 2000 nM | – | COc1cccc(C(=O)Nc2cccc(NC(=S)NC(=O)c3cc(OC)c(OC)c(OC)c3)c2)c1 | 89%
43 | 92% | – | 4% | COc1cc(C(=O)NC(=S)Nc2cc(NC(=O)c3ccccc3)ccc2F)cc(OC)c1OC | 97%
44 | 99% | 600 nM | – | CCOc1c(OC)cc(C(=O)NC(=S)Nc2cccc(NC(=O)c3ccccc3)c2)cc1OC | –
45 | 24% | – | – | COc1cc(C(=O)NC(=S)Nc2cccc(NC(=O)c3ccc4ccccc4c3)c2)cc(OC)c1OC | 59%
